The values below come from patent US12084472B2 (Ardelyx, Inc., priority 2015, dated 2024).

The structures appear in SMILES notation.

The assay deals with T1, human TGR5 (Homo sapiens, UniProt Q8TDU6).
T1 construct: expressed in transfected cells; host or cells: HEK293
T1 sequence (Q8TDU6 1-330): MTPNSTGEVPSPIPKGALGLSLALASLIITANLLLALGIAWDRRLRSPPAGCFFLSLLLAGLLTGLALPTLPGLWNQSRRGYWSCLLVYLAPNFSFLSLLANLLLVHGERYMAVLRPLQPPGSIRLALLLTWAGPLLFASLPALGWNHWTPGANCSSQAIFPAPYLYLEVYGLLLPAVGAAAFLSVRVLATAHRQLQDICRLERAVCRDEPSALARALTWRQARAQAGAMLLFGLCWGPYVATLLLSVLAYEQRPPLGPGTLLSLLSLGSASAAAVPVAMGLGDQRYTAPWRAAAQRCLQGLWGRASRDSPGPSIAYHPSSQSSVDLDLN
In words: Cell-based TGR5 assay (cAMP generation, HTRF). Particulars: HEK293 cells stably transfected with human TGR5; cAMP by HTRF; 30 minutes at 37° C.; read-out: pEC50 Human TGR5 (converted). The essentials: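 First, compounds in 3-fold serial dilution were placed in HBSS with 10 mM HEPES pH 7.4 and 0.5 mM IBMX. Next, human TGR5-expressing HEK293 cells were added and incubated 30 min at 37° C. Finally, cAMP was detected by HTRF and pEC50 derived by logistic fitting.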
For orientation: Time-resolved FRET reads energy transfer from a long-lived donor to a nearby acceptor.
Regarding `Cc1cc(COC2(c3cnccc3-c3ccccc3OC3CC3)CC2)c(Cl)cc1CCCCNC(=O)N1CCN(C[C@H](O)[C@@H](O)[C@@H](O)[C@H](O)CO)CC1` [Compound I-114, N-{4-[5-chloro-4-({1-[4-(2-cyclopropoxyphenyl)pyridin-3-yl]cyclopropoxy}methyl)-2-methylphenyl]butyl}-4-[(2S,3R,4S,5R)-2,3,4,5,6-pentahydroxyhexyl]piperazine-1-carboxamide], the EC50 was < 100 nM.

As to `O=C(CCCCNS(=O)(=O)c1ccc(Cl)c(COC2(c3cnccc3-c3ccccc3OC3CC3)CC2)c1)NC[C@H](O)[C@@H](O)[C@H](O)[C@H](O)CO` [Compound I-433, 5-[4-chloro-3-({1-[4-(2-cyclopropoxyphenyl)pyridin-3-yl]cyclopropoxy}methyl)benzenesulfonamido]-N-[(2S,3R,4R,5R)-2,3,4,5,6-pentahydroxyhexyl]pentanamide], the EC50 was < 100 nM.

As to `CN(CCCSc1ccc(Cl)c(COC2(c3cnccc3-c3ccccc3OC3CC3)CC2)c1)C(=O)[C@@H](O)[C@@H](O)[C@H](O)[C@@H](O)CO` [Compound I-508, (2S,3S,4R,5S)-N-(3-{[4-chloro-3-({1-[4-(2-cyclopropoxyphenyl)pyridin-3-yl]cyclopropoxy}methyl)phenyl]sulfanyl}propyl)-2,3,4,5,6-pentahydroxy-N-methylhexanamide], the EC50 is < 100 nM.

In the case of `O=C(COC1CN(S(=O)(=O)c2ccc(Cl)c(COC3(c4cnccc4-c4ccccc4OC4CC4)CC3)c2)C1)NC[C@H](O)[C@@H](O)[C@H](O)[C@H](O)CO` [Compound I-454, 2-({1-[4-chloro-3-({1-[4-(2-cyclopropoxyphenyl)pyridin-3-yl]cyclopropoxy}methyl)benzenesulfonyl]azetidin-3-yl}oxy)-N-[(2S,3R,4R,5R)-2,3,4,5,6-pentahydroxyhexyl]acetamide], the EC50 is 126 to 1000 nM.

On to `NC(=O)N(Cc1cc(Cl)ccc1Cl)C1(c2cnccc2-c2ccccc2OC2CC2)CC1` [Compound I-57, 1-[1-[4-(2-cyclopropoxyphenyl)pyridin-3-yl]cyclopropyl]-1-[(2,5-dichloro-phenyl)methyl]urea], for which the EC50 was 1260 to 10000 nM.

For `COCCCN(C[C@H](O)[C@@H](O)[C@H](O)[C@H](O)CO)C(=O)CCCCc1cc(Cl)c(COC2(c3cnccc3-c3ccccc3OC3CC3)CC2)cc1Cl` [Compound I-220, 5-[2,5-dichloro-4-({1-[4-(2-cyclopropoxyphenyl)pyridin-3-yl]cyclopropoxy}methyl)phenyl]-N-(3-methoxypropyl)-N-[(2S,3R,4R,5R)-2,3,4,5,6-pentahydroxyhexyl]pentanamide], the EC50 is 126 to 1000 nM.

Turning to `Cc1ccc(SCCCN(CCOCCO)C(=O)[C@@H](O)[C@@H](O)[C@H](O)[C@@H](O)CO)cc1CNC1(c2cnccc2-c2ccccc2OC2CC2)CC1` [Compound I-545, (2S,3S,4R,5S)-N-[3-({3-[({1-[4-(2-cyclopropoxyphenyl)pyridin-3-yl]cyclopropyl}amino)methyl]-4-methylphenyl}sulfanyl)propyl]-2,3,4,5,6-pentahydroxy-N-[2-(2-hydroxyethoxy)ethyl]hexanamide], the EC50 was 126 to 1000 nM.

`CCS(=O)(=O)CCN(CCCC(C)c1ccc(Cl)c(COC2(c3cnccc3-c3ccccc3OC3CC3)CC2)c1)C(=O)[C@@H](O)[C@@H](O)[C@H](O)[C@@H](O)CO` (stereo partly drawn) [Compound I-310, (2S,3S,4R,5S)-N-{4-[4-chloro-3-({1-[4-(2-cyclopropoxyphenyl)pyridin-3-yl]cyclopropoxy}methyl)phenyl]pentyl}-N-[2-(ethanesulfonyl)ethyl]-2,3,4,5,6-pentahydroxyhexanamide]: the EC50 is < 100 nM.

For the molecule `Cc1ccc(SCCCCN(CCOCCO)C(=O)[C@@H](O)[C@@H](O)[C@H](O)[C@@H](O)CO)cc1CNC1(c2cnccc2-c2ccccc2OC2CC2)CC1` [Compound I-549, (2S,3S,4R,5S)-N-[4-({3-[({1-[4-(2-cyclopropoxyphenyl)pyridin-3-yl]cyclopropyl}amino)methyl]-4-methylphenyl}sulfanyl)butyl]-2,3,4,5,6-pentahydroxy-N-[2-(2-hydroxyethoxy)ethyl]hexanamide], the EC50 was < 100 nM.

Take `CCNC(=O)[C@@H](N)CCCCNS(=O)(=O)c1ccc(COC2(c3cnccc3-c3ccccc3OC3CC3)CC2)c(Cl)c1` [Compound I-486, (S)-2-amino-6-(3-chloro-4-((1-(4-(2-cyclopropoxyphenyl)pyridin-3-yl)cyclopropoxy)methyl)phenylsulfonamido)-N-ethylhexanamide]: the EC50 was 126 to 1000 nM.

In the case of `O=C([C@@H](O)[C@@H](O)[C@H](O)[C@@H](O)CO)N(CCCCSc1ccc(Cl)c(COC2(c3cnccc3-c3ccccc3OC3CC3)CC2)c1)CC1CCOCC1` [Compound I-516, (2S,3S,4R,5S)-N-(4-{[4-chloro-3-({1-[4-(2-cyclopropoxyphenyl)pyridin-3-yl]cyclopropoxy}methyl)phenyl]sulfanyl}butyl)-2,3,4,5,6-pentahydroxy-N-(oxan-4-ylmethyl)hexanamide], the EC50 is < 100 nM.

Regarding `CC(CCCC(=O)N(C)C[C@H](O)[C@@H](O)[C@H](O)[C@H](O)CO)c1cc(Cl)c(COC2(c3cnccc3-c3ccccc3OC3CC3)CC2)cc1Cl` (stereo partly drawn) [Compound I-162, 5-[2,5-dichloro-4-({1-[4-(2-cyclopropoxyphenyl)pyridin-3-yl]cyclopropoxy}methyl)phenyl]-N-methyl-N-[(2S,3R,4R,5R)-2,3,4,5,6-pentahydroxyhexyl]hexanamide], the EC50 is < 100 nM.

As to `Cn1c(C(=O)N[C@@H](CO)[C@@H](O)[C@H](O)[C@H](O)CO)cnc1SCc1ccc(Cl)c(COC2(c3cnccc3-c3ccccc3OC3CC3)CC2)c1` [Compound I-759, 2-((4-chloro-3-((1-(4-(2-cyclopropoxyphenyl)pyridin-3-yl)cyclopropoxy)methyl)benzyl)thio)-1-methyl-N-((2S,3R,4S,5R)-1,3,4,5,6-pentahydroxyhexan-2-yl)-1H-imidazole-5-carboxamide], the EC50 was 126 to 1000 nM.

Turning to `CC(=O)NCCN(CCCCSc1ccc(Cl)c(CNC2(c3cnccc3-c3ccccc3OC3CC3)CC2)c1)C(=O)[C@@H](O)[C@@H](O)[C@H](O)[C@@H](O)CO` [Compound I-563, (2S,3S,4R,5S)-N-[4-({4-chloro-3-[({1-[4-(2-cyclopropoxyphenyl)pyridin-3-yl]cyclopropyl}amino)methyl]phenyl}sulfanyl)butyl]-N-(2-acetamidoethyl)-2,3,4,5,6-pentahydroxyhexanamide], the EC50 is 126 to 1000 nM.

Take `CS(=O)(=O)CCN(C[C@H](O)[C@@H](O)[C@H](O)[C@H](O)CO)C(=O)CCCSc1ccc(Cl)c(COC2(c3cnccc3-c3ccccc3OC3CC3)CC2)c1` [Compound I-665, 4-{[4-chloro-3-({1-[4-(2-cyclopropoxyphenyl)pyridin-3-yl]cyclopropoxy}methyl)phenyl]sulfanyl}-N-(2-methanesulfonylethyl)-N-[(2S,3R,4R,5R)-2,3,4,5,6-pentahydroxyhexyl]butanamide]: the EC50 was 126 to 1000 nM.

For `O=C(CCCCc1ccc(Cl)c(CNC2(c3cnccc3-c3ccccc3OC3CC3)CC2)c1)NC[C@H](O)[C@@H](O)[C@H](O)[C@H](O)CO` (stereo in doubt) [Compound I-233, 5-{4-chloro-3-[({1-[4-(2-cyclopropoxyphenyl)pyridin-3-yl]cyclopropyl}amino)methyl]phenyl}-N-[(2S,3R,4R,5R)-2,3,4,5,6-pentahydroxyhexyl]pentanamide], the EC50 was < 100 nM.

Consider `O=C(NCCCCCSc1ccc(Cl)c(COC2(c3cnccc3-c3ccccc3OC3CC3)CC2)c1)NC[C@H](O)[C@@H](O)[C@H](O)[C@H](O)CO` [Compound I-488, 1-(5-[[4-Chloro-3-([1-[4-(2-cyclopropoxyphenyl)pyridin-3-yl]cyclopropoxy]methyl)phenyl]sulfanyl]pentyl)-3-[(2S,3R,4R,5R)-2,3,4,5,6-pentahydroxyhexyl]urea], for which the EC50 was < 100 nM.

`CC(C)N(CCCCNC(=O)NC[C@H](O)[C@@H](O)[C@H](O)[C@H](O)CO)S(=O)(=O)c1ccc(Cl)c(COC2(c3cnccc3-c3ccccc3OC3CC3)CCC2)c1` [Compound I-747, 4-chloro-3-((1-(4-(2-cyclopropoxyphenyl)pyridin-3-yl)cyclobutoxy)methyl)-N-isopropyl-N-(4-(3-((2S,3R,4R,5R)-2,3,4,5,6-pentahydroxyhexyl)ureido)butyl)benzenesulfonamide]: the EC50 is < 100 nM.

As for `CNC(=O)CN(C[C@H](O)[C@@H](O)[C@H](O)[C@H](O)CO)C(=O)CCCC(C)c1ccc(C)c(CNC2(c3cnccc3-c3ccccc3OC3CC3)CC2)c1` (stereo partly drawn) [Compound I-360, 5-{3-[({1-[4-(2-cyclopropoxyphenyl)pyridin-3-yl]cyclopropyl}amino)methyl]-4-methylphenyl}-N-[(methylcarbamoyl)methyl]-N-[(2S,3R,4R,5R)-2,3,4,5,6-pentahydroxyhexyl]hexanamide], the EC50 is < 100 nM.
